ChEMBL document CHEMBL1201862, “PubChem BioAssay data set” (2004)
Counter-ions that a name gives are not always drawn.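 Cultured in 96-well plates, cells were exposed to test compound for 48 hours across five concentrations. GI50 = concentration required for 50% inhibition of growth.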 The source made the active and inactive calls. Rule as the data show it: active = GI50 up to about 1.1 µM and inactive = higher.

Legend:
Experiment in all cases: NCI tumour cell line growth inhibition, 48 h
LXFL 529 = system: LXFL 529
M19-MEL = system: M19-MEL
HOP-18 = system: HOP-18
SNB-78 = system: SNB-78
KM-20L2 = system: KM-20L2
DLD-1 = system: DLD-1
DMS-273 = system: DMS-273
XF498 = system: XF498
RXF 631 = system: RXF 631

| Compound | GI50 (LXFL 529) | GI50 (M19-MEL) | GI50 (HOP-18) | GI50 (SNB-78) | GI50 (KM-20L2) | GI50 (DLD-1) | GI50 (DMS-273) | GI50 (XF498) | GI50 (RXF 631) |
| --- | --- | --- | --- | --- | --- | --- | --- | --- | --- |
| C(=C1/CCCCC([n+]2ccccc2)=N1)/c1ccccc1 | > 100 µM (inactive) | > 100 µM (inactive) | > 100 µM (inactive) | > 100 µM (inactive) | > 100 µM (inactive) | > 100 µM (inactive) | > 100 µM (inactive) | – | – |
| COc1ccc2[nH]c3c(c2c1)CCN(C)CC3 | – | 57.4 µM (inactive) | > 100 µM (inactive) | > 100 µM (inactive) | > 100 µM (inactive) | > 100 µM (inactive) | > 100 µM (inactive) | > 100 µM (inactive) | > 100 µM (inactive) |
| Cc1cccc(C)c1NC(=O)C(=O)C(C#N)c1ccccc1Cl (stereo not given) | > 100 µM (inactive) | > 100 µM (inactive) | 91.4 µM (inactive) | > 100 µM (inactive) | > 100 µM (inactive) | > 100 µM (inactive) | > 100 µM (inactive) | > 100 µM (inactive) | – |
| N=c1ccn2c(n1)O[C@H]1[C@H](O)[C@@H](CO)O[C@H]12 [ANCITABINE HYDROCHLORIDE] | – | 7.21 µM (inactive) | 11.2 µM (inactive) | 242 µM (inactive) | > 562 µM (inactive) | 652 µM (inactive) | 2.34 µM (inactive) | > 647 µM (inactive) | – |
| O=C1OC(c2ccccc2)=N/C1=C/NC(CO)C(=O)O (stereo not given) | > 100 µM (inactive) | > 100 µM (inactive) | 45.6 µM (inactive) | > 100 µM (inactive) | > 100 µM (inactive) | > 100 µM (inactive) | > 100 µM (inactive) | > 100 µM (inactive) | > 100 µM (inactive) |
| CCOCc1cc(=O)c2c(OC)cc3c(c2o1)CCC(C)(C)O3 | > 100 µM (inactive) | > 100 µM (inactive) | > 100 µM (inactive) | > 100 µM (inactive) | > 100 µM (inactive) | > 100 µM (inactive) | – | > 100 µM (inactive) | – |
| COc1ccc2cccc(C(=N)c3ccc(C)c4c3CCC4)c2c1 | 4.86 µM (inactive) | 9.62 µM (inactive) | 0.895 µM (active) | – | 5.82 µM (inactive) | – | 9.4 µM (inactive) | – | 1.37 µM (inactive) |
| O=C(NCCCCCCNC(=O)n1cc(F)c(=O)[nH]c1=O)NCCCOCCOCCOCCOCCOCCOCCOCCOCCOCCOCCOCCOCCOCCOCCOCCOCCOCCOCCOCCOCCOCCCNC(=O)C(O)C(O)C(OC1OC(CO)C(O)C(O)C1O)C(O)CO (stereo not given) | – | 64.3 µM (inactive) | > 37 µM (inactive) | > 100 µM (inactive) | 24.1 µM (inactive) | 22.6 µM (inactive) | 19.8 µM (inactive) | > 100 µM (inactive) | – |
| O=C1c2ccccc2C(=O)c2c(O)c(NCCNCCO)cc(O)c21 | 5.96 µM (inactive) | 3.62 µM (inactive) | 6.49 µM (inactive) | 5.21 µM (inactive) | 4.12 µM (inactive) | 3.13 µM (inactive) | 3.81 µM (inactive) | 6.95 µM (inactive) | – |
| Cc1ccc(S(=O)(=O)Nc2ccccc2C(C)(C)C)cc1 | 24.9 µM (inactive) | 25.6 µM (inactive) | – | 31.6 µM (inactive) | 19 µM (inactive) | 30.8 µM (inactive) | 17.3 µM (inactive) | 22 µM (inactive) | – |
| O=[N+]([O-])c1ccc(C[P+](c2ccccc2)(c2ccccc2)c2ccccc2)cc1 | 12.5 µM (inactive) | 24.2 µM (inactive) | 79.8 µM (inactive) | – | 99.3 µM (inactive) | 50.4 µM (inactive) | 37.8 µM (inactive) | < 0.01 µM (active) | – |
| CC1(C)CC(=O)C=C(NC(=O)c2ccccc2)C1 | > 100 µM (inactive) | > 100 µM (inactive) | – | > 100 µM (inactive) | – | > 100 µM (inactive) | > 100 µM (inactive) | > 100 µM (inactive) | > 100 µM (inactive) |
| CCOC(=O)C1CC/C(=C(/C#N)C(=O)OC)N1 (stereo not given) | > 100 µM (inactive) | > 100 µM (inactive) | – | > 100 µM (inactive) | > 100 µM (inactive) | > 100 µM (inactive) | > 100 µM (inactive) | > 100 µM (inactive) | – |
| C=CC[C@H](C[C@H](C[C@H](C[C@H](C[C@H](C[C@H](C[C@H](C[C@H](C[C@H](C[C@H](CCCCC)OC)OC)OC)OC)OC)OC)OC)OC)OC)OC | – | > 100 µM (inactive) | > 100 µM (inactive) | > 100 µM (inactive) | > 100 µM (inactive) | > 100 µM (inactive) | > 100 µM (inactive) | 41.6 µM (inactive) | – |
| COCc1c(CO)cnc(C)c1OC1OC(CO)C(O)C(O)C1O (stereo not given) | > 100 µM (inactive) | > 100 µM (inactive) | – | – | > 100 µM (inactive) | > 100 µM (inactive) | > 100 µM (inactive) | > 100 µM (inactive) | – |
| COc1cc2ccnc3c2c(c1OC)-c1coc(SC)c1-3 | 78.7 µM (inactive) | > 100 µM (inactive) | 38.6 µM (inactive) | > 100 µM (inactive) | > 100 µM (inactive) | 95.1 µM (inactive) | 60.8 µM (inactive) | – | > 100 µM (inactive) |
| CNCc1cc(OC)ccc1-c1ccc(OC)c(OC)c1OC | > 100 µM (inactive) | > 100 µM (inactive) | > 32.5 µM (inactive) | > 100 µM (inactive) | > 100 µM (inactive) | > 100 µM (inactive) | > 100 µM (inactive) | 85.3 µM (inactive) | > 100 µM (inactive) |
